Measured values taken from patent US20240300927A1, “AMIDES AS CBL-B INHIBITORS” (Genentech, Inc., priority 2021, published 2024).
≈ marks a conversion by molar mass, not a printed value. Read-outs that look alike come from different tables or passages of the source.

Columns and labels:
hWB = assay: IL-2 hWB assay; format: cell-based; conditions: Homo sapiens
Cbl-b = Cbl-b (Homo sapiens (Human), UniProt Q13191); assay: Cbl-b LCK Ub TR-FRET assay (Cbl-b Lck HTRF); format: biochemical
In short: (§1)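 Biotin-Cbl-b (16 nM) or biotin-c-Cbl (12 nM) at 2× preincubated with compound 60 min, then His-LCK (120 nM), 1 mM ATP and MgCl2 (2× mix) added for 90 min at RT. Buffer: HEPES pH 7.0, DTT. UBE2D2–HA-ubiquitin transfer read by TR-FRET (665/615 nm); IC50 versus no-LCK and DMSO controls, 10-point dilutions.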

Kinetic solubility = format: physicochemical; conditions: kinetic from dmso stock
[1] = Liver microsomes metabolic stability, dog; format: in vitro ADME
Description: (§2) Metabolic stability of test compounds was evaluated in pooled rat, mouse, dog, and cynomolgus monkey liver microsomes (BD Biosciences, San Jose, CA). The incubation conditions were as follows: 1 μM of the tested compound, 1 mM NADPH, 0.5 mg/mL microsomal protein in 0.1 M potassium phosphate buffer (pH 7.4). Following a 5-minute pre-incubation period, the enzymatic reactions were initiated by the addition of NADPH and test compound to the microsomes diluted in phosphate buffered saline. The mixtures were incubated at 37° C. for 0, 20, 40, and 60 min.
(§3) Compound concentrations were assessed by LC-MS/MS. Intrinsic clearance based upon microsomal stability data was determined using a substrate depletion method and scaled to hepatic clearance using the well-stirred model (Obach, R. S.; Baxter, J. G.; Liston, T. E.; Silber, B. M.; Jones, B. C.; MacIntyre, F.; Rance, D. J.; Wastall, P., “The Prediction of Human Pharmacokinetic Parameters from Preclinical and in vitro Metabolism Data”, J. Pharmacol. Exp. Ther., (1997), 283 (1), 46-58).

[2] = Liver microsomes metabolic stability, human; format: in vitro ADME
CYP3A4 = CYP3A4 (Homo sapiens (Human), UniProt P08684); assay: Reversible CYP inhibition, CYP3A4; format: in vitro ADME
Source text: Reversible CYP inhibition by compounds described herein can be measured by protocols described by Halladay, J. S.; Delarosa, E. M.; Tran, D.; Wang, L.; Wong, S.; Khojasteh, S. C., “High-Throughput, 384-Well, LC-MS/MS CYP Inhibition Assay Using Automation, Cassette-Analysis Technique, and Streamlined Data Analysis”, Drug. Metab. Lett. 2011, 5 (3), 220-230, incorporated herein by reference.
In the CYP3A4 measurements, potency is less desirable.

[3] = Liver microsomes metabolic stability, cynomolgus monkey; format: in vitro ADME
Description: as §2, §3

c-Cbl = c-Cbl (Homo sapiens (Human), UniProt P22681); assay: C-cbl LCK Ub TR-FRET assay (C-cbl Lck HTRF); format: biochemical
In short: as §1

[4] = Liver microsomes metabolic stability, rat; format: in vitro ADME
Description: as §2, §3

Mouse PK = format: in vivo

Sequence of Cbl-b (Q13191 40-426): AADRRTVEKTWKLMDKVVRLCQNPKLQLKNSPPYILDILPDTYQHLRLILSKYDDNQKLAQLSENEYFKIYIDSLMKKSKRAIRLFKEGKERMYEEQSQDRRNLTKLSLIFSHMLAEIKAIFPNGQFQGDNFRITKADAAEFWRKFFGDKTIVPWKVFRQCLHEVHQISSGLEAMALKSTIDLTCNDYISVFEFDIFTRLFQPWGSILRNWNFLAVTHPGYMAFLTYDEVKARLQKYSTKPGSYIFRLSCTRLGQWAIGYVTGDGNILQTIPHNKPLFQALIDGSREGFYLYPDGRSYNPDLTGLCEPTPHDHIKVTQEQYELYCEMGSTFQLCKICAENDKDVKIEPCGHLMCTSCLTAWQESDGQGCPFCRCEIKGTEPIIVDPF
Sequence of CYP3A4 (P08684 whole entry): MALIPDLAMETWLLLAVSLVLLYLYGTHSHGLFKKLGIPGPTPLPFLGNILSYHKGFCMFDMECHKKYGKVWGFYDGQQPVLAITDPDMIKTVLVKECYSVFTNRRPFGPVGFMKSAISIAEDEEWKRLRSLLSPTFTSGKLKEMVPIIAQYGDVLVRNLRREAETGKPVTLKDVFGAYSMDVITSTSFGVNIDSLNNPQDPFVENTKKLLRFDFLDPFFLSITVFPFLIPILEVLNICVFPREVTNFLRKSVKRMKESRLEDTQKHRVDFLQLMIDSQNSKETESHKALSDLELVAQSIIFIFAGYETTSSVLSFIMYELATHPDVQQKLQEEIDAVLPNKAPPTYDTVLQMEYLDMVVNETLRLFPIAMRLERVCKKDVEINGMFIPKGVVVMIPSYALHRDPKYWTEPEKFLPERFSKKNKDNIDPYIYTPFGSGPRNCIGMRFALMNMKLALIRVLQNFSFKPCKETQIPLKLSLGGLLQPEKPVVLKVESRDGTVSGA
Sequence of c-Cbl (P22681 47-435): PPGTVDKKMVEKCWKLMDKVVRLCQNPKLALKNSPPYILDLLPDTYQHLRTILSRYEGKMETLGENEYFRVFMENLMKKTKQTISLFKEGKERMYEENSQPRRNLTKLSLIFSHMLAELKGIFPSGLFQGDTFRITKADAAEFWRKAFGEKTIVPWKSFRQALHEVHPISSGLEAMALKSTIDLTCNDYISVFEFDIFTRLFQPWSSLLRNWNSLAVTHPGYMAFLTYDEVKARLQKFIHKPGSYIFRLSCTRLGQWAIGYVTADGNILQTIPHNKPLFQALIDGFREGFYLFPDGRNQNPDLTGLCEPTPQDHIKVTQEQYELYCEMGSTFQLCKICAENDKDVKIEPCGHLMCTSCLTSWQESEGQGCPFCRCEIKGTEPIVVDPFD

EC50 (hWB): 250 nM
(fold-selectivity) (Cbl-b; Cbl-b and C-Cbl selectivity, Lck HTRF): (0.66x)
IC50 (Cbl-b; Table 4 comparative data, read-out: Lck IC50): 7.5 nM
IC50 (Cbl-b; read-out: Cbl-b Lck HTRF IC50): 7.5 nM
Lck IC50 (select.) (Cbl-b; selectivity, Table 4): 0.68 x
solubility (Kinetic solubility; value in parentheses, not explained, read-out: Kinet. Solub. (uM), second value in parentheses): 8.5 µM (≈ 4.91 µg/mL)
solubility (Kinetic solubility; read-out: Kinet. Solub.): 8.3 µM (≈ 4.8 µg/mL)
LM (H/R/M/D/C) [1]: 29
LM (H/R/M/D/C) [2]: 18
IC50 (CYP3A4; M, read-out: CYP3A4 IC50 (M/T)): 640 nM
IC50 (CYP3A4; T): 6700 nM
LM (H/R/M/D/C) [3]: 40
IC50 (c-Cbl): 5 nM
LM (H/R/M/D/C) [4]: 38
Mouse PK unbound CLp (Mouse PK): (unbound CLp 683)
clearance (Mouse PK; plasma, intravenous, read-out: Mouse PK CLp): 41 mL/min/kg
bioavailability (Mouse PK; plasma, oral, read-out: Mouse PK F %): 3.4%
SMILES: CC(C)[C@H]1CN(C)CCN1Cc1cc(C(=O)Nc2cccc(C3(Cc4nncn4C)CC(F)(F)C3)c2)nc(C2CC2)c1 [Compound 224, (S)-6-cyclopropyl-N-(3-(3,3-difluoro-1-((4-methyl-4H-1,2,4-triazol-3-yl)methyl)cyclobutyl)phenyl)-4-((2-isopropyl-4-methylpiperazin-1-yl)methyl)picolinamide]
